# Measured values reported in patent US20220241369A1, “COMPOSITIONS AND METHODS OF MODULATING INFLAMMATION” (La Jolla Institute for Allergy and Immunology, priority 2018, published 2022).
# Legend:
# IgE+ mMCP-1+ mast cells = test: Localization of gavaged HRF inhibitors in jejunum by confocal microscopy; type: in vivo, mouse; conditions: mice with allergic diarrhea, 1 h after i.g. gavage of 0.1 mg, anti-GST staining
# Experimental: HRF multimers in the jejunum of non-sensitized/OVA challenged (Cont, n=6) or OVA-sensitized/OVA-challenged (OVA, n=5) mice were quantified by a newly developed ELISA (FIG. 3A, FIG. 3C). HRF was also measured by ELISA (FIG. 3B). HRF dimer and monomer were quantified by western blotting in control (Cont) and food allergic mice treated without (OVA) or with GST (GST) or GST-N19 (N19) (n=5 for each group) (FIG. 3D). Allergic diarrhea was induced by 6 challenges. On the day of 7th challenge, the mice were gavaged with 0.1 mg of GST or GST-N19 (FIG. 3E). One hour later, mice were sacrificed without OVA challenge. Jejunum tissues were stained for GST, IgE, and mMCP-1 before confocal microscopy (n=5 for GST and n=6 for GST-N19). Arrows indicate cells positive for GST or GST-N19 as well as IgE and mMCP-1. […] Bars=50 μm.
# Jejunum biopsy was fixed in 4% paraformaldehyde at 4° C., washed in 10-20% sucrose in phosphate buffered saline, and embedded in O.C.T. compound (Sakura Finetek, Japan). Cyrosections were made in 6 μm and blocked with 2% skim milk. Immunostaining was performed with anti-HRF (rabbit polyclonal FL-172), anti-GST (rabbit polyclonal Z-5) (Santa Cruz Biotechnology), anti-IgE (clone RME-1 from Biolegend and clone R35-72 from BD Biosciences), anti-mMCP1 (Catalog #AF5146, R&D Systems), anti-CD45 (clone 30-F11), anti-CD63 (clone NVG-2) (Biolegend), and anti-Siglec F (clone E50-2440, BD Biosciences) as primary antibodies, and anti-Rabbit Alexa Fluor 647 (Catalog #A21245), anti-Rat Alexa Fluor 568 (Catalog #A11077), and anti-Sheep Alexa Fluor 555 (Catalog #A11015) (Thermo Fisher Scientific) as secondary antibodies. Coverslips were mounted with Prolong Gold with DAPI (Thermo Fisher Scientific) and fluorescence was observed under Leica TCS SP2 confocal microscopy (Leica) and Nuance Multi spectral Imaging System (PerkinElmer).
# Applicant next tested whether HRF inhibitors target mucosal mast cells. To this end, mice with allergic diarrhea were i.g. gavaged with GST-N19 or GST, and their location was identified 1 h after their gavage.
# [1] = tested on: OVA-induced food allergy (allergic diarrhea); test: IgE-mediated experimental food allergy, i.g. pretreatment with HRF inhibitor before each OVA challenge; type: in vivo, mouse; conditions: i.g. pretreatment; serum ELISA
# Experimental: FIGS. 1A-1I show GST-N19 inhibits the development of diarrhea and intestinal mastocytosis in murine food allergy. Mice were i.p. sensitized with OVA ([…]) plus alum on days 0 and 14. From day 28, mice were i.g. challenged with OVA (50 mg) three times a week. Sensitized mice were either non-pretreated (−) or i.g. pretreated with 100 μg of GST or GST-N19 (N19). (FIG. 1A) Procedure scheme. (FIG. 1B) The development of diarrhea was monitored for 90 min after each OVA challenge. (n=5 for non-sensitized group, n=3 for inhibitor non-pretreated group, n=4 for GST group, n=6 for N19 group, data are representative of at least 3 independent experiments) Log-rank test: p=0.028 (GST vs. GST-N19), p=0.036 (control vs. GST-N19). […] (FIG. 1C-FIG. 1E) Total IgE, IgG1, HRF, and HRF-reactive IgE and IgG in sera were measured by ELISA. (FIG. 1F) Serum mMCP-1 was also measured by ELISA. (FIG. 1G) Sections of jejunum were stained with chloroacetate esterase to identify mast cells. Sections indicated by rectangles are enlarged in lower rows. Bar=100 μm in large pictures and 50 μm in insets. (FIG. 1H) Flow cytometry was performed to enumerate MMC9s (Lin^−c-Kit^+ST2^+IL-17RB^−Integrin β7^lo) in jejunum. (n=14 for non-sensitized group, n=15 for inhibitor non-pretreated group, n=9 for GST group, n=9 for GST-N19 group, pooled data of 3 independent experiments) (FIG. 1I) Cytokine mRNAs in jejunum were quantified by qRT-PCR. *, **: p<0.05, p<0.01 by ANOVA with Tukey's multiple comparison.
# Mice were i.p. sensitized with OVA (50 μg/mouse) plus alum on days 0 and 14. From day 28, mice were i.g. challenged with OVA (25 or 50 mg) or PBS (control) three times a week. Before each challenge, mice were starved for 3 h, then i.g. pretreated with GST, GST-N19 (100 μg/mouse), synthetic N19 peptide, or HRF-2CA. The development of diarrhea was monitored for 90 min after OVA challenge. Diarrhea severity (30) was based on states of stool: solid (score 0), funicular (score 1), slurry (score 2), and watery (score 3).
# For histologic analysis, jejunal tissue was fixed in 10% formalin. Mast cells in jejunal sections were detected by chloroacetate esterase staining. IgE, IgG, IgG1, IgG2a, mMCP-1, HRF, HRF-reactive IgE, and HRF-reactive IgG 24 h after the last OVA challenge were measured by ELISA (see Supplemental Information). Cytokine mRNAs in jejunum were quantified by qRT-PCR.
# Twenty-four hours after the last OVA challenge, mice were sacrificed and small intestines (0.5-15 cm from stomach) were collected. The intestinal tissues were opened longitudinally and washed with HBSS. The washed tissues were incubated with 5 mM EDTA-HBSS for 30 min at 4° C., transferred to 30 ml HBSS in 50 ml tubes, and vigorously shaken to remove intestinal epithelial cells. The tissues were then washed with 10 ml of 10% FCS RPMI medium. Tissues were cut into tiny pieces and incubated with 2.4 mg/ml Collagenase D and 0.2 mg/ml DNase for 30 min at 37° C. Then cells were washed, resuspended in 44% Percoll solution, and slowly loaded on the top of 67% Percoll solution. The cells were centrifuged (1800 rpm, 20 min) and lymphocyte fractions were collected and used for detection of MMC9s (Lin^−c-Kit^+ST2^+IL-17RB^−Integrin β7^lo).
# The cells were first incubated with 2.4G2 for 15 min at 4° C. and further incubated with Abs (PE-anti-07 integrin mAb (clone FIB504), PerCP/Cy5.5-anti-CD4 mAb (clone RM4-5), PerCP/Cy5.5-anti-CD8 mAb (clone 53-6.7), PerCP/Cy5.5-anti-CD11b mAb (clone M1/70), PerCP/Cy5.5-anti-CD11c mAb (clone N418), PerCP/Cy5.5-anti-B220 mAb (RA3-6B2), PerCP/Cy5.5-anti-Ly-6G/Ly-6C mAb (clone RB6-8C5), PerCP/Cy5.5-anti-CD335 mAb (clone 29A1.4), AlexaFluor647-anti-IL-17RB (clone 9B10), APC/Cy7-anti-CD117 (clone 2B8), Biotin-anti-ST2 (clone DIH9)) (Biolegend) for 30 min at 4° C. After washed, the cells were incubated with SA-BV421 (Biolegend) for 30 min at 4° C. MMC9 population was identified using FACS Canto. Data were analyzed using FlowJo software.
# [2] = tested on: c-Kit+ mucosal mast cells of the small intestine; test: Ex vivo mast cell activation test (MCAT); type: cell-based, mouse; conditions: cells from allergic mice, HRF-2CA 300 μg/ml
# Experimental: FIGS. 2A-2C show mucosal mast cells can be activated ex vivo by antigen. Cells were released with EDTA from small intestines of non-sensitized/OVA challenged (Cont) or OVA-sensitized/OVA-challenged (OVA) mice, and mononuclear cells were selected. The cells were incubated for 15 min at 37° C. with OVA or anti-IgE antibody, and activation of Kit^+ mast cells was measured by flow cytometry (FIG. 2A, FIG. 2B). **, ***: p<0.01, p<0.001 by Student's t-test. (n=2; a representative of 2 independent experiments) (FIG. 2C) Mucosal cells derived from OVA-sensitized/OVA-challenged mice were stimulated with PBS (n=4), OVA (10 ng/ml, n=4) or HRF dimer (100 μg/ml, n=2) in the presence or absence of HRF-2CA (300 μg/ml).
# FIGS. 11A-11C show HRF dimer, but not monomer can activate mast cells. (FIG. 11A) Purified dimeric and monomeric HRF expressed in E. coli. Recombinant HRF-[…] was purified first by Histrap HP and then Sephacryl S-200 HR16/60. Two peaks were observed by Sephacryl size fractionation. The first (Fr1) and second (Fr3) peaks contained dimer and monomer, respectively, as shown by SDS-PAGE. Fr1 and Fr3 were used for mast cell stimulation. (FIG. 11B) Cells were released with 10 mM EDTA from small intestines of OVA-sensitized/OVA-challenged mice, and mononuclear cells were selected. The cells were incubated for 15 min at 37° C. with mHRF monomer or dimer (100 μg/ml), or PBS, and Kit^+ mast cell activation (LAMP-1^+) was measured by flow cytometry (n=3). (FIG. 11C) Control experiments indicate an excellent specificity of the assay for HRF multimers. HRF-2CA (2CA) was used as a monomer control (n=2 for each concentration). Note that total concentrations of the 1:9 mixture of dimer:monomer gave almost the same luminescence values as did ten-fold less concentrations of dimer.
# Twenty-four hours after the last OVA challenge, mice were sacrificed and small intestines (0.5-15 cm from stomach) were collected. The intestinal tissues were opened longitudinally and washed with PBS. Then, the tissues were incubated with 10 mM EDTA-PBS for 30 min at 37° C. After incubation, the tissues were transferred to 30 ml PBS in 50 ml tubes and vigorously shaken. After washed, the cells were resuspended in 40% Percoll solution and slowly loaded on the top of 75% Percoll solution. The cells were then centrifuged (2000 rpm, 20 min) and lymphocytes were collected. The cells were once centrifuged and resuspended in Tyrode's buffer. Abs (Biotin-anti-CD4 mAb (clone RM4-5), Biotin-anti-CD8 mAb (clone 53-6.7), Biotin-anti-B220 mAb (clone RA3-6B2), Biotin-anti-CD326 mAb (clone G8.8), PE-anti-CD117 (clone 2B8), AlexaFluor647-anti-LAMP-1 mAb (clone 1D4B)) (Biolegend) were added and cells were then stimulated with OVA, anti-IgE (clone RME-1, BioLegend) and recombinant dimeric murine HRF for 15 min at 37° C. After activation, cells were washed and incubated with FITC-streptavidin (Catalog #405202, Biolegend) for 30 min at 4° C. LAMP-1 expression was detected using FACS Calibur. Data were analyzed using FlowJo software.
# [3] = tested on: BEAS-2B human bronchial epithelial cells; test: HRF secretion, western blot, BEAS-2B; type: cell-based; conditions: cultured cells scraped and treated with adenosine and ATP
# Text: As lung epithelial cells are exposed to the environment, HRF secretion was studied using BEAS-2B human bronchial epithelial cells. A small amount of HRF was secreted constitutively, but house dust mite allergens induced the secretion of high-molecular-weight HRF species (HMW-HRFs). Various cytokines including epithelial derived cytokines as well as Th2 cytokines and proinflammatory cytokines further enhanced HDM-induced secretion of HMW-HRFs.
# Cultured cells were scraped and treated with adenosine and ATP, which should be abundantly present in inflammatory or injured tissues. These conditions induced secretion of HRF monomer, dimer and HMW-HRFs like stimulation with HDM plus cytokines.
# Culture supernatants were analyzed by SDS-PAGE under nonreducing (−DTT) and reducing (+DTT) conditions, followed by western blotting for HRF probing. HDM-induced HRF secretion was enhanced not only by Th2 cytokines (IL-4, IL-5, and IL-13), but also by epithelial derived cytokines (IL-25, IL-33, and TSLP) and proinflammatory cytokines (IL-1beta, IL-6 and TNF). med, medium alone; US, unstimulated; HDM, house dust mite; CR, cockroach; RW, ragweed; Af, Aspergillus fumigatus. Arrowhead, HRF monomer.
compound,measurement,setting,value
GST: GST protein used as control for GST-N19 [reference compound],IgE+ mMCP-1+ mast cells co-localized with the substance,IgE+ mMCP-1+ mast cells,34%
synthetic N19 peptide: synthesized N19 peptide (N-terminal 19 amino acids of HRF); HRF inhibitor (MIIYRDLISHDEMFSDIYK),"levels of total IgE, IgG1, IgG2a or HRF-reactive IgE and IgG",[1],failed to affect
same,HRF-induced activation of mucosal mast cells,[2]; HRF dimer 100 μg/ml,significantly suppressed
same,OVA-induced activation of mucosal mast cells,[2]; OVA 10 ng/ml,significantly suppressed
Nc1ncnc2c1ncn2[C@@H]1O[C@H](COP(=O)(O)OP(=O)(O)OP(=O)(O)O)[C@@H](O)[C@H]1O [ATP],"secretion of HRF monomer, dimer and HMW-HRFs",[3],induced
Nc1ncnc2c1ncn2[C@@H]1O[C@H](CO)[C@@H](O)[C@H]1O [adenosine],"secretion of HRF monomer, dimer and HMW-HRFs",[3],induced
